Reference: publication PMC8780828 (Viruses, 2021)

Assays:
[1] = tested on: NL4-3∆Env-NanoLuc/SARS-CoV-2 mutant pseudovirus N501Y/D614G; type: cell-based
[2] = tested on: NL4-3∆Env-NanoLuc/SARS-CoV-2 mutant pseudovirus D614G; type: cell-based
[3] = tested on: NL4-3∆Env-NanoLuc/SARS-CoV-2 mutant pseudovirus P681H; type: cell-based
[4] = tested on: NL4-3∆Env-NanoLuc/SARS-CoV-2 mutant pseudovirus ∆69–70; type: cell-based
[5] = tested on: NL4-3∆Env-NanoLuc/SARS-CoV-2 mutant pseudovirus N501Y/∆69–70; type: cell-based
[6] = tested on: NL4-3∆Env-NanoLuc/SARS-CoV-2 mutant pseudovirus E484K; type: cell-based
[7] = tested on: NL4-3∆Env-NanoLuc/SARS-CoV-2 mutant pseudovirus E484K/D614G; type: cell-based
[8] = tested on: NL4-3∆Env-NanoLuc/SARS-CoV-2 mutant pseudovirus E484K/N501Y; type: cell-based
[9] = tested on: NL4-3∆Env-NanoLuc/SARS-CoV-2 mutant pseudovirus N501Y; type: cell-based
[10] = tested on: NL4-3∆Env-NanoLuc/SARS-CoV-2 mutant pseudovirus N501Y/∆69–70/P681H; type: cell-based
[11] = tested on: NL4-3∆Env-NanoLuc/SARS-CoV-2 mutant pseudovirus E484K/N501Y/D614G; type: cell-based
[12] = tested on: NL4-3∆Env-NanoLuc/SARS-CoV-2 mutant pseudovirus D614G/P681R; type: cell-based
[13] = tested on: NL4-3∆Env-NanoLuc/SARS-CoV-2 mutant pseudovirus D950N; type: cell-based
[14] = tested on: NL4-3∆Env-NanoLuc/SARS-CoV-2 mutant pseudovirus D614G/P681R/D950N; type: cell-based
[15] = tested on: NL4-3∆Env-NanoLuc/SARS-CoV-2 mutant pseudovirus D614G/D950N; type: cell-based
[16] = target: SARS-CoV-2 spike (active trimer) His-tag (Severe acute respiratory syndrome coronavirus 2, UniProt P0DTC2, K986P/R682S/R685S/V987P); type: binding

Compound	IC50 [1] [nM]	IC50 [2] [nM]	IC50 [3] [nM]	IC50 [4] [nM]	IC50 [5] [nM]	IC50 [6] [nM]	IC50 [7] [nM]	IC50 [8] [nM]	IC50 [9] [nM]	IC50 [10] [nM]	IC50 [11] [nM]	IC50 [12] [nM]	IC50 [13] [nM]	IC50 [14] [nM]	IC50 [15] [nM]	ka [16] [M⁻¹ s⁻¹]	kd [16] [s⁻¹]
O=C(O)c1cc(-c2ccc(/C=C3\SC(=S)N(CCc4ccccc4)C3=O)o2)ccc1F [NBCoV3]	104 ± 1	145 ± 28	55 ± 0.3	69 ± 7	94 ± 16	80 ± 10.6	44 ± 0.8	42 ± 1	44.5 ± 0.5	232 ± 17	101 ± 2						
Cc1ccc(-c2ccc(/C=C3\SC(=S)N(CCc4ccccc4)C3=O)o2)cc1C(=O)O [NBCoV4]	77 ± 29	58 ± 0.4	44 ± 0.4	53 ± 0.5	53 ± 11	45 ± 0.4	44 ± 3	51 ± 5	51 ± 0.4	158 ± 31	43 ± 2.5	148 ± 30	207 ± 29	239 ± 7	77.5 ± 16.5		
O=C(O)c1cccc(-c2ccc(/C=C3\SC(=S)N(CCc4ccccc4)C3=O)o2)c1 [NBCoV2]	59 ± 13	61 ± 0.3	51 ± 0.3	55 ± 0.5	66 ± 1	45 ± 0.2	35 ± 0.2	36 ± 0.4	49 ± 0.5	79 ± 14	43 ± 0.5	65 ± 18	88.7 ± 6	53 ± 12	26 ± 2	872	0.00468
Cc1c(C(=O)O)cccc1-c1ccc(/C=C2\SC(=S)N(CCc3ccccc3)C2=O)o1 [NBCoV5]	> 2000	1730 ± 62.5	1720 ± 215	> 2000	> 2000	> 2000	1850 ± 124	> 2000	> 2000	> 2000	> 2000	> 2000	> 2000	> 2000	> 2000		
O=C(O)c1cc(-c2ccc(/C=C3\SC(=S)N(CCc4ccccc4)C3=O)o2)ccc1Cl [NBCoV1]	57 ± 2	56 ± 0.6	35 ± 0.5	48 ± 3	46 ± 0.5	42 ± 0.7	33 ± 0.5	32 ± 0.5	52.5 ± 0.2	57 ± 0.5	45 ± 2	49 ± 13	47.7 ± 15	58 ± 7	33 ± 10	1040	0.00162
